Assay results as given in patent US20090004185A1, “AMINO-SUBSTITUTED QUINAZOLINE DERIVATIVES AS INHIBITORS OF BETA-CATENIN/TCF-4 PATHWAY AND CANCER TREATMENT AGENTS” (WYETH, priority 2007, published 2009).
Counter-ions that a name gives are not always drawn.

Key:
β-catenin/Tcf-4 = assay: cells; format: cell-based; details: Homo sapiens, 24 hours of incubation with compound, ratio Firefly/Renilla luciferase
In short: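 SW480-derived lines with integrated reporters (Tcf-4-driven firefly luciferase; SV40 firefly as specificity control; SV40 Renilla for cell number/toxicity), treated 24 hours with titrated compounds, final 0.316% DMSO. Dual-luciferase read-out; firefly/Renilla ratio as % of control, duplicate plates, IC50 (nM) from curve fit.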

SV40-Luc = SV40-Luc control luciferase reporter assay, SV 5A8 cell line (SV40-Luc and SV40-R-Luc), control for non-specific inhibitors; format: cell-based, human; details: Homo sapiens, SV5A8, 24 h, SV 5A8 cells derived from SW480; 24 hours of incubation with compound; ratio Firefly/Renilla luciferase
In short: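 Stable SW480 reporter clones are exposed to compound dilutions for 24 h at 0.316% DMSO. Firefly signal, Tcf-4- or SV40-driven, is divided by SV40-Renilla signal, and IC50 is derived from this ratio relative to control.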

[1] = SW480, 24 h, Tcf 33.13 cells derived from SW480
[2] = Tcf22C11, 24 h, Tcf 22C11 cells derived from SW480

| Structure (SMILES) | IC50 (β-catenin/Tcf-4; [1]) | IC50 (β-catenin/Tcf-4; [2]) | IC50 (SV40-Luc) | melting point |
| --- | --- | --- | --- | --- |
| O=C(Nc1ccc(CNc2nc(N3CCC3)nc3ccccc23)cc1)c1ccc(F)cc1 [Example 114, N-(4-{[(2-azetidin-1-ylquinazolin-4-yl)amino]methyl}phenyl)-4-fluorobenzamide] | 587 nM | 870 nM | > 5850 nM | 249 °C |
| CC(C)(C)OC(=O)CNc1nc(NCc2ccc(NC(=O)c3ccc(F)cc3)cc2)c2ccccc2n1 [Example 126, tert-butyl N-[4-({4-[(4-fluorobenzoyl)amino]benzyl}amino)quinazolin-2-yl]glycinate] | 1070 nM | 1720 nM | > 2490 nM | 96 °C |
| CNc1nc(NCc2ccc(NC(=O)c3ccc(Cl)cc3)cc2)c2cc(Br)cc(C)c2n1 [Example 66, N-[4-({[6-bromo-8-methyl-2-(methylamino)quinazolin-4-yl]amino}methyl)phenyl]-4-chlorobenzamide] | 649 nM | 1010 nM | > 9790 nM | 139 °C |
| Cc1ccc2c(NCc3ccc(NC(=O)C4CCN(Cc5ccccc5)CC4)cc3)nc(N3CCCCCC3)nc2c1 [Example 131, N-(4-{[(2-azepan-1-yl-7-methylquinazolin-4-yl)amino]methyl}phenyl)-1-benzylpiperidine-4-carboxamide] | 966 nM | 1040 nM | > 7870 nM | 66 °C |
| O=C(Nc1ccc(CNc2nc(NC3CC3)nc3ccccc23)cc1)c1ccc(F)cc1 [Example 121, N-[4-({[2-(cyclopropylamino)quinazolin-4-yl]amino}methyl)phenyl]-4-fluorobenzamide] | 1140 nM | 1720 nM | > 2920 nM | 189 °C |
| CN(C)Cc1ccc2c(NCc3ccc(NC(=O)c4ccc(F)cc4)cc3)nc(N(C)C)nc2c1 (as salt: HCl) [Example 91, N-{4-[({2-(dimethylamino)-7-[(dimethylamino)methyl]quinazolin-4-yl}amino)methyl]phenyl}-4-fluorobenzamide] | – | – | – | 94 °C |
| Cc1ccc2c(NCc3ccc(NC(=O)C4CCN(Cc5ccccc5)CC4)cc3)nc(N3CCCC3)nc2c1 [Example 133, 1-benzyl-N-(4-{[(7-methyl-2-pyrrolidin-1-ylquinazolin-4-yl)amino]methyl}phenyl)piperidine-4-carboxamide] | 793 nM | 669 nM | > 9350 nM | 96 °C |
| O=C(Nc1ccc(CNc2nc(Cl)nc3cc(I)ccc23)cc1)c1ccc(Cl)nc1 [Example 109, 6-chloro-N-(4-{[(2-chloro-7-iodoquinazolin-4-yl)amino]methyl}phenyl)nicotinamide] | – | – | – | 315 °C |
| CC(=O)c1ccc2c(NCc3ccc(NC(=O)c4ccc(F)cc4)cc3)nc(N(C)C)nc2c1 [Example 94, N-[4-({[7-acetyl-2-(dimethylamino)quinazolin-4-yl]amino}methyl)phenyl]-4-fluorobenzamide] | – | – | > 20200 nM | 195 °C |
| CN(C)c1nc(NCc2ccc(NC(=O)c3ccc(F)cc3)cc2)c2ccc(C#N)cc2n1 (as salt: HCl) [Example 89, N-[4-({[7-cyano-2-(dimethylamino)quinazolin-4-yl]amino}methyl)phenyl]-4-fluorobenzamide] | – | – | – | 150 °C |
| CN(C)c1nc(NCc2ccc(NC(=O)c3ccc(Cl)nc3)cc2)c2ccc(I)cc2n1 (as salt: HCl) [Example 110, 6-chloro-N-[4-({[2-(dimethylamino)-7-iodoquinazolin-4-yl]amino}methyl)phenyl]nicotinamide] | – | – | – | 170 °C |
| C=Cc1ccc2c(NCc3ccc(NC(=O)c4ccc(F)cc4)cc3)nc(N(C)C)nc2c1 (as salt: HCl) [Example 87, N-[4-({[2-(dimethylamino)-7-vinylquinazolin-4-yl]amino}methyl)phenyl]-4-fluorobenzamide] | – | – | – | 145 °C |
| O=C(O)CNc1nc(NCc2ccc(NC(=O)c3ccc(F)cc3)cc2)c2ccccc2n1 (as salt: HCl) [Example 127, N-[4-({4-[(4-fluorobenzoyl)amino]benzyl}amino)quinazolin-2-yl]glycine] | – | – | – | 235 °C |
| CN(C)c1nc(NCc2ccc(NC(=O)c3ccc(F)cc3)cc2)c2ccc(CN)cc2n1 (as salt: HCl) [Example 90, N-[4-({[7-(aminomethyl)-2-(dimethylamino)quinazolin-4-yl]amino}methyl)phenyl]-4-fluorobenzamide] | – | – | – | 245 °C |
| C/C=C/c1ccc2c(NCc3ccc(NC(=O)c4ccc(Cl)nc4)cc3)nc(N(C)C)nc2c1 (as salt: HCl) [Example 112, 6-chloro-N-{4-[({2-(dimethylamino)-7-[(1E)-prop-1-en-1-yl]quinazolin-4-yl}amino)methyl]phenyl}nicotinamide] | – | – | – | 185 °C |

Now from value to compound:

| IC50 (β-catenin/Tcf-4; [1]) | IC50 (β-catenin/Tcf-4; [2]) | IC50 (SV40-Luc) | melting point | Structure (SMILES) |
| --- | --- | --- | --- | --- |
| 106 nM | 196 nM | > 2300 nM | 97 to 99 °C | Cc1ccc2c(NCc3ccc(NC(=O)C4CCN(Cc5ccc(F)c(F)c5)CC4)cc3)nc(N(C)C)nc2c1 [Example 255, 1-(3,4-difluorobenzyl)-N-[4-({[2-(dimethylamino)-7-methylquinazolin-4-yl]amino}methyl)phenyl]piperidine-4-carboxamide] |
| 726 nM | 606 nM | > 2530 nM | 154 °C | C/C=C/c1ccc2c(NCc3ccc(NC(=O)C4CCN(Cc5ccccc5)CC4)cc3)nc(N(C)C)nc2c1 [Example 151, 1-benzyl-N-{4-[({2-(dimethylamino)-7-[(1E)-prop-1-en-1-yl]quinazolin-4-yl}amino)methyl]phenyl}-piperidine-4-carboxamide] |
| 448 nM | 451 nM | > 5170 nM | 135 to 139 °C | Cc1ccc2c(NCc3ccc(NC(=O)c4ccc(F)cc4)cc3)nc(N3CCCCCC3)nc2c1 [Example 235, N-(4-{[(2-azepan-1-yl-7-methylquinazolin-4-yl)amino]methyl}phenyl)-4-fluorobenzamide] |
| > 2180 nM | > 4350 nM | > 4350 nM | 135 to 138 °C | Cc1ccc2c(NCc3ccc(NC(=O)c4ccc(F)cc4)cc3)nc(NC3CCN(Cc4ccccc4)CC3)nc2c1 [Example 233, N-{4-[({2-[(1-benzylpiperidin-4-yl)amino]-7-methylquinazolin-4-yl}amino)methyl]phenyl}-4-fluorobenzamide] |
| – | – | > 2820 nM | 170 to 174 °C | CCCNc1nc(NCc2ccc(NC(=O)c3ccc(F)cc3)cc2)c2ccc(C)cc2n1 [Example 231, 4-fluoro-N-[4-({[7-methyl-2-(propylamino)quinazolin-4-yl]amino}methyl)phenyl]benzamide] |
| 253 nM | 346 nM | > 2500 nM | 192 to 194 °C | Cc1ccc2c(NCc3ccc(NC(=O)c4ccc(Cl)cc4)cc3)nc(N3CCCCCC3)nc2c1 [Example 198, N-(4-{[(2-azepan-1-yl-7-methylquinazolin-4-yl)amino]methyl}phenyl)-4-chlorobenzamide] |
| 793 nM | 900 nM | > 3030 nM | 257 to 259 °C | CNc1nc(NCc2ccc(NC(=O)c3ccc(C)nc3)cc2)c2ccc(C)cc2n1 [Example 240, 6-methyl-N-[4-({[7-methyl-2-(methylamino)quinazolin-4-yl]amino}methyl)phenyl]nicotinamide] |
| 255 nM | 284 nM | > 1310 nM | 295 to 298 °C | CNc1nc(NCc2ccc(NC(=O)c3ccc(Br)cc3)cc2)c2ccc(C)cc2n1 [Example 238, 4-bromo-N-[4-({[7-methyl-2-(methylamino)quinazolin-4-yl]amino}methyl)phenyl]benzamide] |
| – | – | > 5780 nM | 233 to 236 °C | CNc1nc(NCc2ccc(NC(=O)c3ccc(Cl)nc3)cc2)c2c(C)cccc2n1 [Example 194, 6-chloro-N-[4-({[5-methyl-2-(methylamino)quinazolin-4-yl]amino}methyl)phenyl]nicotinamide] |
| – | – | – | 325 to 329 °C | Cc1ccc2c(NCc3ccc(NC(=O)c4ccc(Cl)nc4)cc3)nc(N(C)C)nc2c1 (as salt: hydrochloride) [Example 242, 6-chloro-N-[4-({[2-(dimethylamino)-7-methylquinazolin-4-yl]amino}methyl)phenyl]nicotinamide] |
| 292 nM | 408 nM | > 2470 nM | 112 to 115 °C | Cc1ccc2c(NCc3ccc(NC(=O)c4ccc(F)cc4)cc3)nc(NCCc3ccccn3)nc2c1 [Example 232, 4-fluoro-N-{4-[({7-methyl-2-[(2-pyridin-2-ylethyl)amino]quinazolin-4-yl}amino)methyl]phenyl}benzamide] |
| – | – | > 1160 nM | 264 to 266 °C | CNc1nc(NCc2ccc(NC(=O)c3ccc(Cl)cc3)cc2)c2ccc(C)cc2n1 [Example 195, 4-chloro-N-[4-({[7-methyl-2-(methylamino)quinazolin-4-yl]amino}methyl)phenyl]benzamide] |
| – | – | > 6780 nM | 200 to 202 °C | Cc1ccc2c(NCc3ccc(NC(=O)c4ccc(F)cc4)cc3)nc(N3CCN[C@@H](C)C3)nc2c1 [Example 234, 4-fluoro-N-{4-[({7-methyl-2-[(3S)-3-methylpiperazin-1-yl]quinazolin-4-yl}amino)methyl]phenyl}benzamide] |
